Measurements from BigSolDB 2.1.

NC(=O)c1cnccn1
solubility (mole fraction)
Conditions | 283.15 K | 293.15 K | 303.15 K | 313.15 K | 323.15 K | 333.15 K
in 1,4-dioxane | – | 0.0072 | 0.0107 | 0.0138 | 0.0202 | 0.0285
in acetone | 0.00244 | 0.00386 | 0.00583 | 0.00768 | 0.0116 | –
in methanol | 0.00268 | 0.00398 | 0.00586 | 0.0086 | 0.0122 | –
